Assay results published in patent US8541363B2, “Pyruvamide compounds as inhibitors of dust mite group 1 peptidase allergen and their use” (St George's Hosptial Medical School, priority 2010, dated 2013).
pIC50: −log10 of the molar value. Like-named read-outs stand apart in the source and are kept apart here.

What was measured:
[1] = biological target: Der p 1 (Dermatophagoides pteronyssinus (European house dust mite), UniProt P08176); experiment: Der p 1 enzyme activity assay (FRET fluorogenic substrate); assay type: biochemical
[2] = test system: Brown Norway rats sensitized to HDM allergens; experiment: Allergen challenge study in vivo (acute allergic bronchoconstriction); set-up: species or system rat; settings: challenge 2 hours after intratracheal dosing (100 μL of a 40 μM solution), P<0.05, Mann-Whitney Rank Sum Test
Procedure: The studies were performed in male Brown Norway rats (approximate weight 350 g at time of allergen challenge) obtained from Harlan UK Ltd. Each animal was allocated a unique identification number after sensitisation, identified by a waterproof tail mark, and randomly assigned to a treatment group. All studies were conducted in accordance with the Animals (Scientific Procedures) Act 1986, with UK Home Office Guidance on the implementation of the Act and with all applicable Codes of Practice for the care and housing of laboratory animals.
A mixture of HDM allergens was harvested from a laboratory culture of Dermatophagoides pteronyssinus. Allergen dose was standardized according to the Der p 1 content of the mixture as determined by an ELISA measurement referenced against the IUIS standard for Der p 1. […]
On Day 21 of the sensitization and challenge protocol, rats were anaesthetised with pentobarbitone (100 mg/kg, i.p.) and ventilated via a tracheal cannula (approximately 7 mL/kg, 1 Hz) with a mixture of air and oxygen (50:50). […] Ventilation was monitored by a flow transducer (Fleisch, type 0000) in-line with the respiratory pump. […] From these measurements of flow and differential pressure, both airways resistance (RL) and dynamic compliance (Cdyn) were calculated for each respiratory cycle on a digital electronic respiratory analyser (PMS, Mumed Ltd, UK). […]

[3] = Table 1, read-out: Der p 1 IC50

Sequence of Der p 1 (P08176 99-320): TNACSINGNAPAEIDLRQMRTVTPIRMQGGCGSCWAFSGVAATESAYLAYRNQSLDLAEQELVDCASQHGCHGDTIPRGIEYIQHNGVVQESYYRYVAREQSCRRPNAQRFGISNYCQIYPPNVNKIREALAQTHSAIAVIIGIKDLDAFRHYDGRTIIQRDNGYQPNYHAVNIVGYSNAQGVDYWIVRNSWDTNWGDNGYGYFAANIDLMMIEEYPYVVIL

Compound: CC(C)[C@H](NC(=O)[C@H](C)NC(=O)[C@@H](NC(=O)c1ccncc1)C(C)(C)C)C(=O)C(=O)NC1CCCCC1 [PVA-038]
- pIC50 ([1]; Der p 1 IC50): > 7.70
- pIC50 [1, 3]: 7.88
- magnitude of second allergen challenge (change in airway resistance) compared to first challenge [2]: significantly reduced

Compound: CC(C)[C@H](NC(=O)[C@H](C)NC(=O)[C@@H](NC(=O)c1ccccc1)C(C)(C)C)C(=O)C(=O)NC1CCCCC1 [PVA-026]
- pIC50 ([1]; Der p 1 IC50): > 7.70
- pIC50 [1, 3]: 7.85
- magnitude of second allergen challenge (change in airway resistance) compared to first challenge [2]: significantly reduced
